What was measured:
[1] = tested on: windgrass; experiment: Test D preemergence; assay type: in vivo, Apera spica-venti; conditions: Apera spica-venti, pre-emergence
Outline: (§1)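 Solvent/surfactant formulations are sprayed pre (silt loam) or post (1–4 leaf plants, 2–18 cm). Plants stay 7–21 days in controlled conditions before a visual 0–100 score is given.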

[2] = tested on: field bindweed; experiment: Test E postemergence; assay type: in vivo, Convolvulus arvensis; conditions: Convolvulus arvensis, post-emergence, read-out: Plant response rating, Field Bindweed
Outline: (§2)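 Compound in a non-phytotoxic solvent mixture with surfactant was applied preemergence to seeds in silt loam soil, or postemergence to plants 2 to 18 cm tall grown in peat-based potting medium. Plants were kept in a greenhouse for 14 to 21 days, then rated visually against untreated controls on a 0 (no effect) to 100 (complete control) scale.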

[3] = tested on: wild mustard; experiment: Test D preemergence; assay type: in vivo, Sinapis arvensis; conditions: Brassica, pre-emergence, scale 0-100, read-out: Plant response rating, Mustard, Wild
Outline: as §1

[4] = tested on: bromegrass, downy; experiment: Test D postemergence; assay type: in vivo, Bromus tectorum; conditions: Bromus tectorum, post-emergence, Postemergence, scale 0 to 100 (0 no effect, 100 complete control), read-out: Plant response rating, Bromegrass, Downy
Outline: as §1

[5] = tested on: wild buckwheat; experiment: Test D preemergence; assay type: in vivo, Polygonum convolvulus; conditions: Fallopia convolvulus, pre-emergence, scale 0-100, read-out: Plant response rating, Buckwheat, Wild
Outline: as §1

[6] = tested on: chamomile; experiment: Test D postemergence; assay type: in vivo, Matricaria inodora; conditions: Tripleurospermum inodorum, post-emergence, scale 0 to 100 (0 no effect, 100 complete control), read-out: Plant response rating, Chamomile
Outline: as §1

[7] = tested on: oilseed rape; experiment: Test D postemergence; assay type: in vivo, Brassica napus; conditions: Brassica napus, post-emergence, scale 0 to 100 (0 no effect, 100 complete control), read-out: Plant response rating, Oilseed Rape
Outline: as §1

[8] = tested on: Brazilian crabgrass; experiment: Test E postemergence; assay type: in vivo, Digitaria horizontalis; conditions: Digitaria horizontalis, post-emergence, read-out: Plant response rating, Crabgrass, Brazil
Outline: as §2

[9] = tested on: wild poinsettia; experiment: Test E postemergence; assay type: in vivo, Euphorbia heterophylla; conditions: Euphorbia heterophylla, post-emergence, read-out: Plant response rating, Poinsettia, Wild
Outline: as §2

[10] = tested on: field poppy; experiment: Test D preemergence; assay type: in vivo, Papaver rhoeas; conditions: Papaver rhoeas, pre-emergence, scale 0-100, read-out: Plant response rating, Field Poppy
Outline: as §1

[11] = tested on: speedwell; experiment: Test D postemergence; assay type: in vivo, Veronica persica; conditions: Veronica persica, post-emergence, scale 0 to 100 (0 no effect, 100 complete control), read-out: Plant response rating, Speedwell
Outline: as §1

[12] = tested on: winter barley; experiment: Test D postemergence; assay type: in vivo, Hordeum vulgare; conditions: Hordeum vulgare, post-emergence, Postemergence, scale 0 to 100 (0 no effect, 100 complete control), read-out: Plant response rating, Barley, Winter
Outline: as §1

[13] = tested on: spring barley; experiment: Test D postemergence; assay type: in vivo, Hordeum vulgare; conditions: Hordeum vulgare, post-emergence, Postemergence, scale 0 to 100 (0 no effect, 100 complete control), read-out: Plant response rating, Barley, Spring
Outline: as §1

[14] = Postemergence, 31 g ai/ha, scale 0 to 100
[15] = Postemergence, 62 g ai/ha, scale 0 to 100
[16] = Postemergence, 125 g ai/ha, scale 0 to 100
[17] = Postemergence, 250 g ai/ha, scale 0 to 100
[18] = postemergence, 16 g ai/ha, scale 0 to 100, 0 no effect, 100 complete control

N#Cc1cccc(Oc2ncc(Br)cn2)c1-n1cc(C(F)(F)F)cn1 [Compound 59, 3-[(5-bromo-2-pyrimidinyl)oxy]-2-[4-(trifluoromethyl)-1H-pyrazol-1-yl]benzonitrile]
pest or weed control at 31 g/ha ([1]; 31 g ai/ha, scale 0 (no effect) to 100 (complete control), read-out: Plant response rating, Windgrass): 70%
pest or weed control at 62 g/ha ([1]; 62 g ai/ha, scale 0-100, read-out: Plant response rating, Windgrass): 100%
pest or weed control at 125 g/ha ([1]; 125 g ai/ha, scale 0-100, read-out: Plant response rating, Windgrass): 100%
pest or weed control at 250 g/ha ([1]; 250 g ai/ha, scale 0-100, read-out: Plant response rating, Windgrass): 100%
pest or weed control at 31 g/ha [2, 14]: 60%
pest or weed control at 62 g/ha [2, 15]: 65%
pest or weed control at 125 g/ha [2, 16]: 70%
pest or weed control at 250 g/ha [2, 17]: 80%
pest or weed control at 16 g/ha [2, 18]: 50%
pest or weed control at 31 g/ha ([3]; 31 g ai/ha): 15%
pest or weed control at 62 g/ha ([3]; 62 g ai/ha): 100%
pest or weed control at 125 g/ha ([3]; 125 g ai/ha): 100%
pest or weed control at 250 g/ha ([3]; 250 g ai/ha): 100%
pest or weed control at 31 g/ha ([4]; 31 g ai/ha): 20%
pest or weed control at 62 g/ha ([4]; 62 g ai/ha): 20%
pest or weed control at 125 g/ha ([4]; 125 g ai/ha): 25%
pest or weed control at 250 g/ha ([4]; 250 g ai/ha): 30%
pest or weed control at 31 g/ha ([5]; 31 g ai/ha): 60%
pest or weed control at 62 g/ha ([5]; 62 g ai/ha): 100%
pest or weed control at 125 g/ha ([5]; 125 g ai/ha): 100%
pest or weed control at 250 g/ha ([5]; 250 g ai/ha): 100%
pest or weed control at 31 g/ha ([6]; 31 g ai/ha): 5%
pest or weed control at 62 g/ha ([6]; 62 g ai/ha): 10%
pest or weed control at 125 g/ha ([6]; 125 g ai/ha): 10%
pest or weed control at 250 g/ha ([6]; 250 g ai/ha): 15%
plant injury at 31 g/ha ([7]; 31 g ai/ha): 65%
plant injury at 62 g/ha ([7]; 62 g ai/ha): 65%
plant injury at 125 g/ha ([7]; 125 g ai/ha): 75%
plant injury at 250 g/ha ([7]; 250 g ai/ha): 100%
pest or weed control at 31 g/ha [8, 14]: 15%
pest or weed control at 62 g/ha [8, 15]: 20%
pest or weed control at 125 g/ha [8, 16]: 25%
pest or weed control at 250 g/ha [8, 17]: 50%
pest or weed control at 16 g/ha [8, 18]: 15%
pest or weed control at 31 g/ha [9, 14]: 50%
pest or weed control at 62 g/ha [9, 15]: 60%
pest or weed control at 125 g/ha [9, 16]: 65%
pest or weed control at 250 g/ha [9, 17]: 80%
pest or weed control at 16 g/ha [9, 18]: 50%
pest or weed control at 31 g/ha ([10]; 31 g ai/ha): 95%
pest or weed control at 62 g/ha ([10]; 62 g ai/ha): 100%
pest or weed control at 125 g/ha ([10]; 125 g ai/ha): 100%
pest or weed control at 250 g/ha ([10]; 250 g ai/ha): 100%
pest or weed control at 31 g/ha ([11]; 31 g ai/ha): 100%
pest or weed control at 62 g/ha ([11]; 62 g ai/ha): 75%
pest or weed control at 125 g/ha ([11]; 125 g ai/ha): 100%
pest or weed control at 250 g/ha ([11]; 250 g ai/ha): 100%
plant injury at 31 g/ha ([12]; 31 g ai/ha): 10%
plant injury at 62 g/ha ([12]; 62 g ai/ha): 15%
plant injury at 125 g/ha ([12]; 125 g ai/ha): 15%
plant injury at 250 g/ha ([12]; 250 g ai/ha): 25%
plant injury at 31 g/ha ([13]; 31 g ai/ha): 10%
plant injury at 62 g/ha ([13]; 62 g ai/ha): 20%
plant injury at 125 g/ha ([13]; 125 g ai/ha): 20%
plant injury at 250 g/ha ([13]; 250 g ai/ha): 35%

— patent US9695155B2, “Herbicidal substituted pyrimidinyloxy benzene compounds” (E. I. DU PONT DE NEMOURS AND COMPANY, priority 2013, dated 2017)
